Like-named read-outs stand apart in the source and are kept apart here.
Tests used:
[1] = system: purified bovine brain tubulin; assay: Tubulin polymerization assay (light scattering, BK006 kit); type: biochemical; details: compound at 10 μM; relative to vehicle
Procedure, shortened: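 Purified bovine brain tubulin (3 mg/mL) in PIPES 80 mM pH 6.9, EGTA, MgCl2, 1 mM GTP, 10% glycerol incubated at 37 °C with compound at 10 µM or vehicle (1% DMSO or EtOH). Assembly followed turbidimetrically at 340 nm; values are means of two independent assays.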

HL-60(TB) = assay: NCI-60 SRB screen, leukemia; type: cell-based, human; details: Homo sapiens
RPMI-8226 = assay: NCI-60 SRB screen, leukemia; type: cell-based, human; details: Homo sapiens; RPMI-8226; five dose 0.01–100 µM, 48 h; read-out: GI50
SR = assay: NCI-60 SRB screen, leukemia; type: cell-based, human; details: Homo sapiens, five dose 0.01–100 µM, 48 h, read-out: GI50
HOP-62 = assay: NCI-60 SRB screen, non-small cell lung cancer; type: cell-based, human; details: Homo sapiens; HOP-62; five dose 0.01–100 µM, 48 h; read-out: GI50
NCI-H23 = assay: NCI-60 SRB screen, non-small cell lung cancer; type: cell-based, human; details: Homo sapiens; NCI-H23; five dose 0.01–100 µM, 48 h; read-out: GI50
COLO 205 = assay: NCI-60 SRB screen, colon cancer; type: cell-based, human; details: Homo sapiens; COLO 205; five dose 0.01–100 µM, 48 h; read-out: GI50
HCT-2998 = assay: NCI-60 SRB screen, colon cancer; type: cell-based, human; details: Homo sapiens; HCT-2998; five dose 0.01–100 µM, 48 h; read-out: GI50
HCT-116 = assay: NCI-60 SRB screen, colon cancer; type: cell-based, human; details: Homo sapiens; HCT-116; five dose 0.01–100 µM, 48 h; read-out: GI50
HT29 = assay: NCI-60 SRB screen, colon cancer; type: cell-based, human; details: Homo sapiens, HT-29; for GI50: HT29, five dose 0.01–100 µM, 48 h, read-out: GI50
U251 = assay: NCI-60 SRB screen, CNS cancer; type: cell-based, human; details: Homo sapiens, U-251; U251; five dose 0.01–100 µM, 48 h; read-out: GI50
PC-3 = assay: NCI-60 SRB screen, prostate cancer; type: cell-based, human; details: Homo sapiens; PC-3; five dose 0.01–100 µM, 48 h; read-out: GI50
SK-MEL-5 = assay: NCI-60 SRB screen, melanoma; type: cell-based, human; details: Homo sapiens; SK-MEL-5; five dose 0.01–100 µM, 48 h; read-out: GI50
UACC-62 = assay: NCI-60 SRB screen, melanoma; type: cell-based, human; details: Homo sapiens; UACC-62; five dose 0.01–100 µM, 48 h; read-out: GI50
IGROV1 = assay: NCI-60 SRB screen, ovarian cancer; type: cell-based, human; details: Homo sapiens, IGROV-1; IGROV1; five dose 0.01–100 µM, 48 h; read-out: GI50
OVCAR-3 = assay: NCI-60 SRB screen, ovarian cancer; type: cell-based, human; details: Homo sapiens; OVCAR-3; five dose 0.01–100 µM, 48 h; read-out: GI50
OVCAR-5 = assay: NCI-60 SRB screen, ovarian cancer; type: cell-based, human; details: Homo sapiens; OVCAR-5; five dose 0.01–100 µM, 48 h; read-out: GI50
SK-OV-3 = assay: NCI-60 SRB screen, ovarian cancer; type: cell-based, human; details: Homo sapiens; SK-OV-3; five dose 0.01–100 µM, 48 h; read-out: GI50
786-0 = assay: NCI-60 SRB screen, renal cancer; type: cell-based, human; details: Homo sapiens; 786-0; five dose 0.01–100 µM, 48 h; read-out: GI50
A498 = assay: NCI-60 SRB screen, renal cancer; type: cell-based, human; details: Homo sapiens; A498; five dose 0.01–100 µM, 48 h; read-out: GI50
CAKI-1 = assay: NCI-60 SRB screen, renal cancer; type: cell-based, human; details: Homo sapiens; CAKI-1; five dose 0.01–100 µM, 48 h; read-out: GI50
RXF 393 = assay: NCI-60 SRB screen, renal cancer; type: cell-based, human; details: Homo sapiens; RXF 393; five dose 0.01–100 µM, 48 h; read-out: GI50
TK-10 = assay: NCI-60 SRB screen, renal cancer; type: cell-based, human; details: Homo sapiens; TK-10; five dose 0.01–100 µM, 48 h; read-out: GI50
HS 578T = assay: NCI-60 SRB screen, breast cancer; type: cell-based; details: Homo sapiens; HS 578T; five dose 0.01–100 µM, 48 h; read-out: GI50
BT-549 = assay: NCI-60 SRB screen, breast cancer; type: cell-based, human; details: Homo sapiens; BT-549; five dose 0.01–100 µM, 48 h; read-out: GI50
T-47D = assay: NCI-60 SRB screen, breast cancer; type: cell-based, human; details: Homo sapiens, T47D; T-47D; five dose 0.01–100 µM, 48 h; read-out: GI50
[2] = system: MCF-7 human breast cancer cells; assay: cells
SNB-19 = assay: NCI-60 SRB screen, CNS cancer; type: cell-based, human; details: Homo sapiens; SNB-19; five dose 0.01–100 µM, 48 h; read-out: GI50
[3] = HL-60(TB), five dose 0.01–100 µM, 48 h

Structure (SMILES)	GI50 (HL-60(TB); [3]) [nM]	GI50 (RPMI-8226) [nM]	GI50 (SR) [nM]	GI50 (HOP-62) [nM]	GI50 (NCI-H23) [nM]	GI50 (COLO 205) [nM]	GI50 (HCT-2998) [nM]	GI50 (HCT-116) [nM]	GI50 (HT29) [nM]	GI50 (U251) [nM]	GI50 (PC-3) [nM]	GI50 (SK-MEL-5) [nM]	GI50 (UACC-62) [nM]	GI50 (IGROV1) [nM]	GI50 (OVCAR-3) [nM]	GI50 (OVCAR-5) [nM]	GI50 (SK-OV-3) [nM]	GI50 (786-0) [nM]	GI50 (A498) [nM]	GI50 (CAKI-1) [nM]	also measured
C=C(C)C1C(=O)N(c2cc(OC)c(OC)c(OC)c2)C1c1ccc(OC)c(N)c1 (stereo not drawn) [9s, 4-(3-Amino-4-methoxyphenyl)-1-(3,4,5-trimethoxyphenyl)-3-(prop-1-en-2-yl)azetidin-2-one]	28.3	35.9	30.4	52.1	25.8	19.7	29.1	30.2	33.7	37.5	37.9	23.2	40.6	35.7	22.8	81.3	31.7	37.6	23.4	49.1	Fold Reduction in Vmax [1]: 2.66; GI50 (HL-60(TB); HL-60, NCI screen): < 34 nM; IC50 (HT29; text of the NCI screening section, read-out: IC50): 34 nM; GI50 (RXF 393): 39.6 nM; GI50 (TK-10): 64.9 nM; GI50 (HS 578T): 40.9 nM; GI50 (BT-549): 37.8 nM; GI50 (T-47D): > 100000 nM; IC50 ([2]; MCF7, MCF-7): 33 nM
C=C(C)C1C(=O)N(c2cc(OC)c(OC)c(OC)c2)C1c1ccc(OC)c(OP(=O)(O)O)c1 (stereo not drawn) [15a, 2-Methoxy-5-(4-oxo-3-(prop-1-en-2-yl)-1-(3,4,5-trimethoxyphenyl)azetidin-2-yl)-phenyl dihydrogen phosphate]	27.9	105	53.1	105	90.2	312	238	50.6	577	39.5	49.4	40.6	55.5	62.8	62.4	535	79.1	390	32.4	80.5	GI50 (HL-60(TB); HL-60, NCI screen): < 34 nM; GI50 (SNB-19): 429 nM; GI50 (RXF 393): 123 nM; GI50 (TK-10): 43100 nM; GI50 (HS 578T): 63.1 nM; GI50 (BT-549): 59.6 nM; GI50 (T-47D): > 100000 nM; IC50 ([2]; MCF7): 19 nM
COc1ccc(C2C(C(C)C)C(=O)N2c2cc(OC)c(OC)c(OC)c2)cc1OP(=O)(O)O (stereo not drawn) [15b, 5-(3-Isopropyl-1-(3,4,5-trimethoxyphenyl)-4-oxoazetidin-2-yl)-2-methoxyphenyl dihydrogen phosphate]	305	478	324	374	368	1230	452	319	3470	276	278	164	131	434	270	2340	416	439	104	320	GI50 (SNB-19): 477 nM; GI50 (RXF 393): 282 nM; GI50 (TK-10): 695 nM; GI50 (HS 578T): 173 nM; GI50 (BT-549): 411 nM; GI50 (T-47D): > 100000 nM; IC50 ([2]; MCF7, 72 h, read-out: Antiproliferative Activity IC50): 145000 ± 7760 nM
